Experiments:
[1] = target: D(3) dopamine receptor (Homo sapiens) (UniProt P35462); conditions: Compound concentration 10.0 uM
[2] = target: Histamine H2 receptor (Homo sapiens) (UniProt P25021); conditions: Compound concentration 10.0 uM
[3] = target: Mitogen-activated protein kinase 13 (Homo sapiens) (UniProt O15264); experiment: p38delta Invitrogen kinase panel; conditions: Compound concentration 10.0 uM
[4] = target: Serine/threonine-protein kinase PAK 4 (Homo sapiens) (UniProt O96013); experiment: PAK4 Invitrogen kinase panel; conditions: Compound concentration 10.0 uM
[5] = target: Platelet-derived growth factor receptor beta (Homo sapiens) (UniProt P09619); experiment: PDGFRbeta Invitrogen kinase panel; conditions: Compound concentration 10.0 uM
Sequence of Platelet-derived growth factor receptor beta (Homo sapiens) (P09619 whole entry): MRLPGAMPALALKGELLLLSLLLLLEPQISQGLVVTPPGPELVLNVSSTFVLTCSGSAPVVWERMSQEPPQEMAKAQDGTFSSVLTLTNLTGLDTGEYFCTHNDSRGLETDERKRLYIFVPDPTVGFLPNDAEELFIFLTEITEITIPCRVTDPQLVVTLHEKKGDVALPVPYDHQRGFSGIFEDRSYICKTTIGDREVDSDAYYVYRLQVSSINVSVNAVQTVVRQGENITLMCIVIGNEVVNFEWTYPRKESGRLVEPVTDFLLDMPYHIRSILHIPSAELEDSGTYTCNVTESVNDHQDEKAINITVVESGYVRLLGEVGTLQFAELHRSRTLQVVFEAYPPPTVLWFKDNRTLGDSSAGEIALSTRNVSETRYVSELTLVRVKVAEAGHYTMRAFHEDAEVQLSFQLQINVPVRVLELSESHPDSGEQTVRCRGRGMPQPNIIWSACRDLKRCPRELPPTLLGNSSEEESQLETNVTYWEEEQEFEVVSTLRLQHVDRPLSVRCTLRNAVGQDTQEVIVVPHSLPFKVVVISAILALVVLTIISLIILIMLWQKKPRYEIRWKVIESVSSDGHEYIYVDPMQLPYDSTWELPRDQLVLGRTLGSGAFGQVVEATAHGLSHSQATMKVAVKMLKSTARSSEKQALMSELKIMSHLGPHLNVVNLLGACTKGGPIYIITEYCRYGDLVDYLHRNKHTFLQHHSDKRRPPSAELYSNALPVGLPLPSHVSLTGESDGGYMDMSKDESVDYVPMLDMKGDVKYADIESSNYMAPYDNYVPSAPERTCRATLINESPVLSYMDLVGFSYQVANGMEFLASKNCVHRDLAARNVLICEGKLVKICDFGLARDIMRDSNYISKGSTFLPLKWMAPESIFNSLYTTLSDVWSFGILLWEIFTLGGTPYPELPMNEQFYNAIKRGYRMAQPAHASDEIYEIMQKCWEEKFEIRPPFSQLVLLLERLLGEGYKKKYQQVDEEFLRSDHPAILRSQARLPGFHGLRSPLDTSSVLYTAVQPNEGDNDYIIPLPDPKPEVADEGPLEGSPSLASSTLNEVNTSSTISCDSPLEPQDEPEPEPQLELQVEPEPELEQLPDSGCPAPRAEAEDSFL

[6] = target: Sigma intracellular receptor 2 (Homo sapiens, UniProt Q5BJF2); experiment: GPCRScan assay: inhibition of Sigma 2; parameters: radioligand conc. used [nm] 5.0, parental cells HEKT
Sequence of Sigma intracellular receptor 2 (Q5BJF2 whole entry): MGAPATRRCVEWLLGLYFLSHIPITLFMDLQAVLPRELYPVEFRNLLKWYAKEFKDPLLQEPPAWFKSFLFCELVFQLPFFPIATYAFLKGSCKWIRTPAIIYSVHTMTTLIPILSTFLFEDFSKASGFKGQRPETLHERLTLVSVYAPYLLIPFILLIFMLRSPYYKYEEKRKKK

[7] = target: 5-hydroxytryptamine receptor 1A (Homo sapiens) (UniProt P08908); conditions: Compound concentration 10.0 uM
Sequence of 5-hydroxytryptamine receptor 1A (Homo sapiens) (P08908 whole entry): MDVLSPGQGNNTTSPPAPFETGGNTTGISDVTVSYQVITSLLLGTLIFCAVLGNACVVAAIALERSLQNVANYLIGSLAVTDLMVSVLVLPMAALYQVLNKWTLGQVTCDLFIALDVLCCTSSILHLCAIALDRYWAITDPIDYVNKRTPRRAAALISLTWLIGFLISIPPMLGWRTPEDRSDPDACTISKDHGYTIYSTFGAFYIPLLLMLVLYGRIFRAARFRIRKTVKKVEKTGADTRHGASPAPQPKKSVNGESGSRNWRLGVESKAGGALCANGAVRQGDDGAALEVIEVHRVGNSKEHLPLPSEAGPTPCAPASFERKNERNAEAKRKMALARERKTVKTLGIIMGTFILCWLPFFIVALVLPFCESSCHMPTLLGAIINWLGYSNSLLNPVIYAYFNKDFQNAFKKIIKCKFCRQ

[8] = target: Peroxisome proliferator-activated receptor alpha (Homo sapiens) (UniProt Q07869); experiment: PPARalpha Indigo Bioscience nuclear receptor screen; conditions: Compound concentration 0.3 uM
[9] = target: T1, Estrogen receptor (Homo sapiens) (UniProt P03372); experiment: ERalpha In-house nuclear receptor screen; conditions: Compound concentration 3.0 uM
T1 sequence (whole entry): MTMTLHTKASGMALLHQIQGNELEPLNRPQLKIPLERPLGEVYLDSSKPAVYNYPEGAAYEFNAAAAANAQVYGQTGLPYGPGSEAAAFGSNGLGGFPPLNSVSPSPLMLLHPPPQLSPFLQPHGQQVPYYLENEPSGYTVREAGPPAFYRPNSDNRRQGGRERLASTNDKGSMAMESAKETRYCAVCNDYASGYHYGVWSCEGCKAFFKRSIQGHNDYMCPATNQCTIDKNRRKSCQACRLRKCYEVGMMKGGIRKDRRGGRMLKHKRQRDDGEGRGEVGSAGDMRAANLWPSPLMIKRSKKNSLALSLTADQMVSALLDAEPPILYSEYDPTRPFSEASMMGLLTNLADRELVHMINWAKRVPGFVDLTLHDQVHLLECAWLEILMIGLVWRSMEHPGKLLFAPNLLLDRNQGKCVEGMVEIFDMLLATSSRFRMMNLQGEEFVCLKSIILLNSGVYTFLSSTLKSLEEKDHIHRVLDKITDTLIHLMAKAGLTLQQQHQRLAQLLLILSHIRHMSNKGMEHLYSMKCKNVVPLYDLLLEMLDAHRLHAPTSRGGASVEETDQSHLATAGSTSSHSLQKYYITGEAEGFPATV

[10] = target: Sodium-dependent serotonin transporter (Homo sapiens) (UniProt P31645); conditions: Compound concentration 10.0 uM
[11] = target: Delta-type opioid receptor (Homo sapiens) (UniProt P41143); conditions: Compound concentration 10.0 uM
[12] = target: Interleukin-1 receptor-associated kinase 4 (Homo sapiens) (UniProt Q9NWZ3); experiment: IRAK4 Invitrogen kinase panel; conditions: Compound concentration 10.0 uM
[13] = target: Alpha-2A adrenergic receptor (Homo sapiens) (UniProt P08913); conditions: Compound concentration 10.0 uM
Sequence of Alpha-2A adrenergic receptor (Homo sapiens) (P08913 whole entry): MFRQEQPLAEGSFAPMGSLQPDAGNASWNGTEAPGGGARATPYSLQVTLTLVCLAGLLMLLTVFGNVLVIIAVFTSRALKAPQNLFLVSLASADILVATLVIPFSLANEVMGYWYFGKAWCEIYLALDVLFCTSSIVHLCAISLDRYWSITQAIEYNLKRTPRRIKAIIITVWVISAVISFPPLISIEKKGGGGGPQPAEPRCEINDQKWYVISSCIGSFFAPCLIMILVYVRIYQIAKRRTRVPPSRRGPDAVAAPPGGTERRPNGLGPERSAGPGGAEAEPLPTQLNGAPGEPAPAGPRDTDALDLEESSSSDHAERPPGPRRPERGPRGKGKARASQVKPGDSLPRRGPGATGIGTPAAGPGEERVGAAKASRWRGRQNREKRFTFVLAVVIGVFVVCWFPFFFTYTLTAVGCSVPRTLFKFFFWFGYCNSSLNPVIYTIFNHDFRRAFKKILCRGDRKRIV

[14] = target: T2, Glucocorticoid receptor (Homo sapiens) (UniProt P04150); experiment: GR In-house nuclear receptor screen; conditions: Compound concentration 3.0 uM
T2 sequence (whole entry): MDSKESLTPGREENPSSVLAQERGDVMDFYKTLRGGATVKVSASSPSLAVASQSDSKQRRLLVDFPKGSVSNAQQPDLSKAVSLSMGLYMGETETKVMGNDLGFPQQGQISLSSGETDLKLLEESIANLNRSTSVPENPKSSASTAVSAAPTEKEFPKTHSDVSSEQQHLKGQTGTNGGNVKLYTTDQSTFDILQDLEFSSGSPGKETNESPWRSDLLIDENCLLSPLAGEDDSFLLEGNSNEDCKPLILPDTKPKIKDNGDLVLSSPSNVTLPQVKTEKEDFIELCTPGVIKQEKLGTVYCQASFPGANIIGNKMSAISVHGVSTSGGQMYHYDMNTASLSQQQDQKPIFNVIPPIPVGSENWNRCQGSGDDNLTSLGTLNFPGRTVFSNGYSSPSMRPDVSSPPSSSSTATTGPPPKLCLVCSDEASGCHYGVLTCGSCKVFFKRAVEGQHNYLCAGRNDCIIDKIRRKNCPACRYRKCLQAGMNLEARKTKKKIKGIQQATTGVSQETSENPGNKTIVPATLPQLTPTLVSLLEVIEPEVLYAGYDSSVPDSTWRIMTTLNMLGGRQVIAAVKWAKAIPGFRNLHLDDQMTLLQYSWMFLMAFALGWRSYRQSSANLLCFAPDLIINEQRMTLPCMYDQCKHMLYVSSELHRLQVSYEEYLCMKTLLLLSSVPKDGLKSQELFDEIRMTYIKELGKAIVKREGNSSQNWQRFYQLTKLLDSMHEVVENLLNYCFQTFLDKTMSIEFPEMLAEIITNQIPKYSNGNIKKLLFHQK

[15] = target: Mitogen-activated protein kinase 1 (Homo sapiens) (UniProt P28482); experiment: ERK2 Invitrogen kinase panel; conditions: Compound concentration 10.0 uM
[16] = target: Dual specificity protein kinase CLK2 (Homo sapiens) (UniProt P49760); experiment: CLK2 Invitrogen kinase panel; conditions: Compound concentration 10.0 uM
Sequence of Dual specificity protein kinase CLK2 (Homo sapiens) (P49760 whole entry, looked up): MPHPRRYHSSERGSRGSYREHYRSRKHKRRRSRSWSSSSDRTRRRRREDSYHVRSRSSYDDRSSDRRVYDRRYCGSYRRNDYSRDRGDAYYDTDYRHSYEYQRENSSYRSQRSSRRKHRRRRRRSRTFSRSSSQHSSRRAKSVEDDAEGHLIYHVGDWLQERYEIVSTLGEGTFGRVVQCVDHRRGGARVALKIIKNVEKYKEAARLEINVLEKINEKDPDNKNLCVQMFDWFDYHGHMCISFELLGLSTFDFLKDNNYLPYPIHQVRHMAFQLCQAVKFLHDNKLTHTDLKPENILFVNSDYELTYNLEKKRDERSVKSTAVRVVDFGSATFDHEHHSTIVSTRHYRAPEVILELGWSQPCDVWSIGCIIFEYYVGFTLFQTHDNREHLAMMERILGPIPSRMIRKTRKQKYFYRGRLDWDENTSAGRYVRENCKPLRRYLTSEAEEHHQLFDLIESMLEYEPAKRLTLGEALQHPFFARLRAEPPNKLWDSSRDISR

[17] = target: Death-associated protein kinase 3 (Homo sapiens) (UniProt O43293); experiment: ZIPK Invitrogen kinase panel; conditions: Compound concentration 10.0 uM
Sequence of Death-associated protein kinase 3 (Homo sapiens) (O43293 whole entry, looked up): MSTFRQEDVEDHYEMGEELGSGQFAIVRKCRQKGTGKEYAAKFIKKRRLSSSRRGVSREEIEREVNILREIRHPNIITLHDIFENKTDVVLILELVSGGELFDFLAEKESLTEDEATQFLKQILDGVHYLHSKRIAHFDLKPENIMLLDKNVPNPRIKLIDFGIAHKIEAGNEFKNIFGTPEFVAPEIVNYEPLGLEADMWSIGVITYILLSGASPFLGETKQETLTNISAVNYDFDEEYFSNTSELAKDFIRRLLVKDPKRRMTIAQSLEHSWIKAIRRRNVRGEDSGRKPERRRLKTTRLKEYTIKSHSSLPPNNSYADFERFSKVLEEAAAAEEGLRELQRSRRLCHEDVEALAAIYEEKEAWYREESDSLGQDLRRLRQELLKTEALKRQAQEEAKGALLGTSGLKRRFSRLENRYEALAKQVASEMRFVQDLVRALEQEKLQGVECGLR

[18] = target: Beta-3 adrenergic receptor (Homo sapiens) (UniProt P13945); conditions: Compound concentration 10.0 uM
[19] = target: Proto-oncogene tyrosine-protein kinase receptor Ret (Homo sapiens) (UniProt P07949); experiment: Ret Invitrogen kinase panel; conditions: Compound concentration 10.0 uM
Sequence of Proto-oncogene tyrosine-protein kinase receptor Ret (Homo sapiens) (P07949 whole entry): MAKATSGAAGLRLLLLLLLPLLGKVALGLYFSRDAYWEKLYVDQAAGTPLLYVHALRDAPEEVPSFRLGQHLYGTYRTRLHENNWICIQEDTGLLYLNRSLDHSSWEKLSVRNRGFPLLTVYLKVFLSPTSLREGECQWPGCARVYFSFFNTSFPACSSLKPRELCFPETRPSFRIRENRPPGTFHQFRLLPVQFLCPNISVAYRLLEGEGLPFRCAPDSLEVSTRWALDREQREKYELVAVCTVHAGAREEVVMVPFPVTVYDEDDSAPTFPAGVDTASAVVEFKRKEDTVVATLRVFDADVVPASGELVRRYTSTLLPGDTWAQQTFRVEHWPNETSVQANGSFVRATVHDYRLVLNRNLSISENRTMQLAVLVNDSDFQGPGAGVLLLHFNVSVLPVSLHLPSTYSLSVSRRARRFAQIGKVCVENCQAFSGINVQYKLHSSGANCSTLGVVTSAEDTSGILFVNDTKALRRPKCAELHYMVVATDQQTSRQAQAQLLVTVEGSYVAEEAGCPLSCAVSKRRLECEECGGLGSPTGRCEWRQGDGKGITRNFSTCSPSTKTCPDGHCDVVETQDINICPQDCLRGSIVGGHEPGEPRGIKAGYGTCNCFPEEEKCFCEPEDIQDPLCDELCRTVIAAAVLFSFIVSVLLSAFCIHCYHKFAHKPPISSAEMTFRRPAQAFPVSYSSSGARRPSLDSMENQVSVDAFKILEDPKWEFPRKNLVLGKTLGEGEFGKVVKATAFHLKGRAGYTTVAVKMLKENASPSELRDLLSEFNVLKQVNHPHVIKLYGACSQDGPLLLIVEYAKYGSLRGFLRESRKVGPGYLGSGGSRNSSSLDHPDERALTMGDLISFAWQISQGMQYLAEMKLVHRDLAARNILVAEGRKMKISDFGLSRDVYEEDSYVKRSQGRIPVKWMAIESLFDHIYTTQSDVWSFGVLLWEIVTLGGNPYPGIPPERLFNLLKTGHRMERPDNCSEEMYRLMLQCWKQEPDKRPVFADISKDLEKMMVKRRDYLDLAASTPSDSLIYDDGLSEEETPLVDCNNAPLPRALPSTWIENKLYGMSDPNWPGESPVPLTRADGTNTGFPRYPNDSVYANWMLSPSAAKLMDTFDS

[20] = target: 5-hydroxytryptamine receptor 6 (Homo sapiens) (UniProt P50406); conditions: Compound concentration 10.0 uM
[21] = target: T3, Bile acid receptor (Homo sapiens) (UniProt Q96RI1); experiment: FXR Indigo Bioscience nuclear receptor screen
T3 sequence (whole entry): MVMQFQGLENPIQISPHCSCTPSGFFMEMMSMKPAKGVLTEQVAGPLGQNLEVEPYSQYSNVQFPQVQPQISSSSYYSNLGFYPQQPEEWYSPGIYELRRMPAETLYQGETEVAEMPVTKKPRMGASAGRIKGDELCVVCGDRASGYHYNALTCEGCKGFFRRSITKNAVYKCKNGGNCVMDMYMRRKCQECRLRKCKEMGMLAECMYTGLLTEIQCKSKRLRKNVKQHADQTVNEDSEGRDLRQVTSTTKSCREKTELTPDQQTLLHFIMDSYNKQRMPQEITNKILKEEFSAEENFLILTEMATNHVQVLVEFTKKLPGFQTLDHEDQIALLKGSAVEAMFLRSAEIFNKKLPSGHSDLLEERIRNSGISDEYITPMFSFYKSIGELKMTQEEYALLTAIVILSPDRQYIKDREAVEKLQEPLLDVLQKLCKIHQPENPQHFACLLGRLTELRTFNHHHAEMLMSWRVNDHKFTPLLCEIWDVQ

[22] = target: Beta-1 adrenergic receptor (Homo sapiens) (UniProt P08588); conditions: Compound concentration 10.0 uM
Sequence of Beta-1 adrenergic receptor (Homo sapiens) (P08588 whole entry, looked up): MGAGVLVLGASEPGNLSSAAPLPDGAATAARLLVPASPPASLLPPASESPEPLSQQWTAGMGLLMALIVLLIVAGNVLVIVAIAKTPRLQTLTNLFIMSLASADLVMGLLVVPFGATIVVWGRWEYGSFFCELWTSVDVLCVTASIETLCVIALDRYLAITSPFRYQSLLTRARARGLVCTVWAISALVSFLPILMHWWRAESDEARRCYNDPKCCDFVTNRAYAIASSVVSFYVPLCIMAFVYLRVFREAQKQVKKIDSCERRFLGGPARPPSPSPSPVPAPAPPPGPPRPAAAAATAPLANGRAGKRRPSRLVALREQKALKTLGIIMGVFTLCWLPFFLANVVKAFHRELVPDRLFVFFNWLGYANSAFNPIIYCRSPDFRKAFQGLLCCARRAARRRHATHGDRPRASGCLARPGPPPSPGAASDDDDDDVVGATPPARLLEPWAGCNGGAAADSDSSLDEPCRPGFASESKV

- inhibition [1]: -2.36%
- inhibition [2]: -0.99%
- inhibition [3]: 14%
- inhibition [4]: 4%
- inhibition [5]: 5%
- Ki ([6]; read-out: Ki): 637 nM
- Ki ([6]; read-out: pKi (converted)): 603 nM
- inhibition [7]: 16.6%
- inhibition [8]: 1.34%
- inhibition [9]: 16.8%
- inhibition [10]: 5.62%
- inhibition [11]: 7.18%
- inhibition [12]: 6%
- inhibition [13]: 20.8%
- inhibition [14]: 13%
- inhibition [15]: 13%
- inhibition [16]: 4%
- inhibition [18]: 39.4%
- inhibition [19]: 3%
- inhibition [20]: 8.8%
- inhibition ([21]; Compound concentration 0.3 uM): -8.5%
- inhibition ([21]; Compound concentration 1.0 uM): 5.23%
- inhibition [22]: 15.2%
Structure (SMILES): COc1nc2ccc([C@@](O)(c3ccccc3)C3CCN(C(C)=O)CC3)cc2c(Cl)c1Cc1ccc(-n2cccn2)cc1 [JNJ-54119936]
- inhibition [17]: 10%
